This note sets out measurements from patent US12599672B2, “KRAS proteolysis targeting chimeras” (PAQ Therapeutics Inc., priority 2023, dated 2026).

Bounds are passed on as bounds.

In one assay the target is T1, KRAS G12V (Homo sapiens, UniProt P01116, G12V).
T1 construct: SW620-KRAS (G12V)-HiBit-KI cell (Pharmaron); host or cells: SW620-KRAS (G12V)-HiBit-KI cells (HiBiT knock-in at the endogenous KRAS locus)
Kind of assay: KRAS G12V HiBit assay. Format: cell-based. Conditions: SW620-KRAS (G12V)-HiBit-KI cells, compound treatment for 24 hours, class symbols. How it is done:
Day 1. […] Rinsed cultivated cells in T-75 flasks with 5 mL PBS (Solarbio, P1020-500). […] Inactivated trypsin by adding excessive serum containing medium. Harvested the cells from flask into cell culture medium and counted the cell number.
Day 2. Test compounds were dissolved at 0.3 mM in DMSO (Solarbio, D8371) as stock solution. […] Performed 3-fold, 10-points dilution via transferring 15 μL compound into 30 μL DMSO by using TECAN liquid handler (TECAN, Freedom EVO200). […] After compound treatment for 24 hours, the plate was removed from incubators and equilibrated at room temperature for 15 minutes. Prepare the HiBit reagent (Promega, N3040) by mixing 10 mL of Nano-Glo®-HiBiT Lytic Buffer with 200 μL of Nano-Glo®-HiBiT Lytic Substrate and 100 μL of LgBiT Protein. Added 20 μL of HiBit reagent into each well of the cell plate and spun the plates at room temperature at 1,000 RPM for 1 minute.
The degradation activity was calculated using the following formula:
[formula] where HC (high control) is obtained from cells treated with 0.1% DMSO only.

In the next assay the target is T2, KRAS G12D (Homo sapiens, UniProt P01116, G12D).
T2 construct: AsPc-1-KRAS (G12D)-HiBit-KI cell (Pharmaron); host or cells: AsPc-1-KRAS (G12D)-HiBit-KI cells (HiBiT knock-in at the endogenous KRAS locus)
T2 sequence (P01116 1-188 isoform P01116-2 G12D): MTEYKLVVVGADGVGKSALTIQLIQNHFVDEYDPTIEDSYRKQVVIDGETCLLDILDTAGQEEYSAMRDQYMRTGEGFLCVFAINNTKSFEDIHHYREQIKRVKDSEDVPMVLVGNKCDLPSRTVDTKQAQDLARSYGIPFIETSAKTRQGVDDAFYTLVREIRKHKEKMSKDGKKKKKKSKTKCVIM
Kind of assay: KRAS G12D HiBit assay. Format: cell-based. Conditions: AsPc-1-KRAS (G12D)-HiBit-KI cell, compound treatment for 24 hours, class symbols; for DC50: absolute DC50. Summed up: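 HiBiT luminescence, detected by adding lytic buffer, substrate and LgBiT protein, served as the KRAS G12D read-out. Compounds, serially diluted 3-fold over 10 points from 0.3 mM DMSO stock, were on cells for 24 h; percent inhibition normalized to cells given 0.1% DMSO only.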

T1 sequence (P01116 1-188 isoform P01116-2 G12V): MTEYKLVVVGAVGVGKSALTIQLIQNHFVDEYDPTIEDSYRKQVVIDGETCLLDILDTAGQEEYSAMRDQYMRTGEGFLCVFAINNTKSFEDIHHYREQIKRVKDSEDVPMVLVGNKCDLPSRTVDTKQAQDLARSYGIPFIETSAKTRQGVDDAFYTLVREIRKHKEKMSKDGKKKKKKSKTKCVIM

As to `C#Cc1c(F)ccc2cc(O)cc(-c3ncc4c(N5CCCC(F)(F)C5)nc(OCC5(CN6CCN(CC7CCN(c8ccc9c(c8)n(C)c(=O)n9C8CCC(=O)NC8=O)CC7)CC6)CC5)nc4c3F)c12` (stereo not drawn) [Compound 17, 3-(5-(4-((4-((1-(((4-(3,3-Difluoropiperidin-1-yl)-7-(8-ethynyl-7-fluoro-3-hydroxynaphthalen-1-yl)-8-fluoropyrido[4,3-d]pyrimidin-2-yl)oxy)methyl)cyclopropyl)methyl)piperazin-1-yl)methyl)piperidin-1-yl)-3-methyl-2-oxo-2,3-dihydro-1H-benzo[d]imidazol-1-yl) piperidine-2,6-dione], the DC50 at KRAS G12V was > 100 nM; on KRAS G12D, < 100 nM. Besides, the Dmax at KRAS G12D is > 50%.

`C#Cc1c(F)ccc2cc(O)cc(-c3ncc4c(N5CCC[C@@](C)(O)C5)nc(OCC5(CN6CCC7(CC6)CN(c6ccc8c(c6)n(C)c(=O)n8C6CCC(=O)NC6=O)C7)CC5)nc4c3F)c12` (stereo partly drawn) [Compound 33]: the DC50 was > 100 nM at KRAS G12V and > 300 nM on KRAS G12D.

With `CCc1c(F)ccc2cccc(-c3ncc4c(N5CCC[C@@](C)(O)C5)nc(OC[C@@]56CCCN5[C@H](COC(=O)NCCOCCOCCOCCOc5ccc7c(c5)n(C)c(=O)n7C5CCC(=O)NC5=O)CC6)nc4c3F)c12` (stereo partly drawn) [Compound 105, ((3S,7aS)-7a-(((7-(8-ethyl-7-fluoronaphthalen-1-yl)-8-fluoro-4-((R)-3-hydroxy-3-methylpiperidin-1-yl)pyrido[4,3-d]pyrimidin-2-yl)oxy)methyl)hexahydro-1H-pyrrolizin-3-yl)methyl (2-(2-(2-(2-((1-(2,6-dioxopiperidin-3-yl)-3-methyl-2-oxo-2,3-dihydro-1H-benzo[d]imidazol-5-yl)oxy)ethoxy)ethoxy)ethoxy)ethyl) carbamate], the DC50 at KRAS G12V is > 100 nM. For the same compound, on KRAS G12D, the DC50 is > 300 nM and the Dmax was 15 to 50%.

`CCc1c(F)ccc2cc(O)cc(-c3ncc4c(N5CCC[C@@](C)(O)C5)nc(OC[C@@]56CCCN5[C@H](CCCN5CCC7(CC5)CC(N5CCC(c8ccc9c(c8)n(C)c(=O)n9C8CCC(=O)NC8=O)CC5)C7)CC6)nc4c3F)c12` (stereo partly drawn) [Compound 472, 3-(5-(1-(7-(3-((3R,7aS)-7a-(((7-(8-Ethyl-7-fluoro-3-hydroxynaphthalen-1-yl)-8-fluoro-4-((R)-3-hydroxy-3-methylpiperidin-1-yl)pyrido[4,3-d]pyrimidin-2-yl)oxy)methyl)hexahydro-1H-pyrrolizin-3-yl)propyl)-7-azaspiro[3.5]nonan-2-yl)piperidin-4-yl)-3-methyl-2-oxo-2,3-dihydro-1H-benzo[d]imidazol-1-yl) piperidine-2,6-dione]: the DC50 is 10 to 100 nM at KRAS G12V and < 100 nM on KRAS G12D.

In the case of `CCc1c(F)ccc2cc(O)cc(-c3ncc4c(N5CCC[C@@](C)(O)C5)nc(OC[C@@]56CCCN5[C@H](COC(=O)N5CCC(C)(CN7CCN(c8ccc9c(c8)n(C)c(=O)n9C8CCC(=O)NC8=O)CC7)CC5)CC6)nc4c3F)c12` (stereo partly drawn) [Compound 502, ((3S,7aS)-7a-(((7-(8-ethyl-7-fluoro-3-hydroxynaphthalen-1-yl)-8-fluoro-4-((R)-3-hydroxy-3-methylpiperidin-1-yl)pyrido[4,3-d]pyrimidin-2-yl)oxy)methyl)hexahydro-1H-pyrrolizin-3-yl)methyl 4-((4-(1-(2,6-dioxopiperidin-3-yl)-3-methyl-2-oxo-2,3-dihydro-1H-benzo[d]imidazol-5-yl)piperazin-1-yl)methyl)-4-methylpiperidine-1-carboxylate], the DC50 on KRAS G12V was < 10 nM; on KRAS G12D, < 100 nM.

As for `C[C@H]1CN(CC(=O)N2CCC(CN3CCC(c4ccc5c(c4)n(C)c(=O)n5C4CCC(=O)NC4=O)CC3)CC2)CCCN1c1nccc(-c2noc([C@@]3(C)CCCc4sc(N)c(C#N)c43)n2)n1` (stereo partly drawn) [Compound 210, (4S)-2-amino-4-(3-{2-[(2S)-4-{2-[4-({4-[1-(2,6-dioxopiperidin-3-yl)-3-methyl-2-oxo-1,3-benzodiazol-5-yl]piperidin-1-yl}methyl)piperidin-1-yl]-2-oxoethyl}-2-methyl-1,4-diazepan-1-yl]pyrimidin-4-yl}-1,2,4-oxadiazol-5-yl)-4-methyl-6,7-dihydro-5H-1-benzothiophene-3-carbonitrile], the DC50 at KRAS G12V was > 100 nM. Further, on KRAS G12D, the DC50 is > 300 nM and the Dmax fell in the range of 15 to 50%.

With `C#Cc1c(F)ccc2cc(O)cc(-c3ncc4c(N5CCC[C@@](C)(O)C5)nc(OC[C@@]56CCCN5[C@H](COC(=O)N5CCC(N7CCC(c8ccc9c(c8)n(C)c(=O)n9C8CCC(=O)NC8=O)CC7)CC5)CC6)nc4c3F)c12` (stereo partly drawn) [Compound 129], the DC50 was > 100 nM at KRAS G12V and > 300 nM at KRAS G12D.

Consider `CCc1c(F)ccc2cc(O)cc(-c3ncc4c(N5CCC[C@@](C)(O)C5)nc(OC[C@@]56CCCN5[C@H](COC(=O)N5CCC(CN7CC8(CC(c9ccc%10c(c9)n(C)c(=O)n%10C9CCC(=O)NC9=O)C8)C7)CC5)CC6)nc4c3F)c12` (stereo partly drawn) [Compound 366, ((3S,7aS)-7a-(((7-(8-ethyl-7-fluoro-3-hydroxynaphthalen-1-yl)-8-fluoro-4-((R)-3-hydroxy-3-methylpiperidin-1-yl)pyrido[4,3-d]pyrimidin-2-yl)oxy)methyl)hexahydro-1H-pyrrolizin-3-yl)methyl 4-((6-(1-(2,6-dioxopiperidin-3-yl)-3-methyl-2-oxo-2,3-dihydro-1H-benzo[d]imidazol-5-yl)-2-azaspiro[3.3]heptan-2-yl)methyl)piperidine-1-carboxylate], for which the DC50 on KRAS G12V was 10 to 100 nM; on KRAS G12D, < 100 nM.

Take `CCc1c(F)ccc2cc(O)cc(-c3ncc4c(N5CCC[C@H](O)C5)nc(OC[C@@]56CCCN5[C@H](COC(=O)N5CCC7(CC5)CC(N5CCC(c8ccc9c(c8)n(C)c(=O)n9C8CCC(=O)NC8=O)CC5)C7)CC6)nc4c3F)c12` (stereo partly drawn) [Compound 354, ((3S,7aS)-7a-(((7-(8-ethyl-7-fluoro-3-hydroxynaphthalen-1-yl)-8-fluoro-4-((S)-3-hydroxypiperidin-1-yl)pyrido[4,3-d]pyrimidin-2-yl)oxy)methyl)hexahydro-1H-pyrrolizin-3-yl)methyl 2-(4-(1-(2,6-dioxopiperidin-3-yl)-3-methyl-2-oxo-2,3-dihydro-1H-benzo[d]imidazol-5-yl)piperidin-1-yl)-7-azaspiro[3.5]nonane-7-carboxylate]: the DC50 at KRAS G12V was < 10 nM; on KRAS G12D, < 100 nM.

With `CCc1c(F)ccc2cc(O)cc(-c3ncc4c(N5CCC[C@@](C)(O)C5)nc(OC[C@@]56CCCN5[C@H](COC(=O)N5CCC(CN7C8CCC7CC(c7ccc9c(c7)n(C)c(=O)n9C7CCC(=O)NC7=O)C8)CC5)CC6)nc4c3F)c12` (stereo partly drawn) [Compound 393, ((3S,7aS)-7a-(((7-(8-ethyl-7-fluoro-3-hydroxynaphthalen-1-yl)-8-fluoro-4-((R)-3-hydroxy-3-methylpiperidin-1-yl)pyrido[4,3-d]pyrimidin-2-yl)oxy)methyl)hexahydro-1H-pyrrolizin-3-yl)methyl 4-((3-(1-(2,6-dioxopiperidin-3-yl)-3-methyl-2-oxo-2,3-dihydro-1H-benzo[d]imidazol-5-yl)-8-azabicyclo[3.2.1]octan-8-yl)methyl)piperidine-1-carboxylate], the figures for the DC50 at KRAS G12V and at KRAS G12D were 10 to 100 nM and < 100 nM, respectively.

Turning to `CCc1c(F)ccc2cc(O)cc(-c3ncc4c(N5CCC[C@@H]5CO)nc(OC[C@@]56CCCN5[C@H](COC(=O)N5CCC7(CC5)CC(N5CCC(c8ccc9c(c8)n(C)c(=O)n9C8CCC(=O)NC8=O)CC5)C7)CC6)nc4c3F)c12` (stereo partly drawn) [Compound 352, ((3S,7aS)-7a-(((7-(8-ethyl-7-fluoro-3-hydroxynaphthalen-1-yl)-8-fluoro-4-((R)-2-(hydroxymethyl)pyrrolidin-1-yl)pyrido[4,3-d]pyrimidin-2-yl)oxy)methyl)hexahydro-1H-pyrrolizin-3-yl)methyl 2-(4-(1-(2,6-dioxopiperidin-3-yl)-3-methyl-2-oxo-2,3-dihydro-1H-benzo[d]imidazol-5-yl)piperidin-1-yl)-7-azaspiro[3.5]nonane-7-carboxylate], the DC50 at KRAS G12V is < 10 nM; on KRAS G12D it was < 100 nM.

Regarding `C#Cc1c(F)ccc2cccc(-c3ncc4c(N5CCC[C@@](C)(O)C5)nc(OCC5(CN6CCC7(CC6)CC(N6CCN(c8cccc9c8n(C)c(=O)n9C8CCC(=O)NC8=O)CC6)C7)CC5)nc4c3F)c12` (stereo partly drawn) [Compound 70], the results for the DC50 at KRAS G12V and at KRAS G12D were > 100 nM and > 300 nM, respectively.
